The results in this text go back to ChEMBL document CHEMBL5352418, “Molecular networking assisted discovery and combinatorial biosynthesis of new antimicrobial pleuromutilins” (Eur J Med Chem, 2022).

The subject of series [1] is RAW264.7. The series can be described thus: Immunostimulatory activity in mouse RAW264.7 cells assessed as increase in cell viability at 1 uM incubated for 48 hrs by CCK-8 assay. The series is classed as functional. On the technique in general: Tetrazolium assays rely on reduction of a dye to a coloured formazan, in cell work by metabolically active cells.
For another series, the system named is Staphylococcus aureus. The experiment in a line: Antibacterial activity against methicillin-resistant Staphylococcus aureus clinical isolate assessed as bacterial growth inhibition by CLSI protocol based broth microdilution method. The series is classed as functional. In general terms: Broth dilution looks for growth in wells or tubes with falling amounts of substance.

Series [2] deals with RAW264.7. The experiment in a line: Cytotoxicity activity mouse RAW264.7 cells assessed as reduction in cell viability at upto 100 uM incubated for 48 hrs by CCK-8 assay. The series is classed as toxicity, cell-based. Conditions: raw264.7, 48 h.
The test system of series [3] is RAW264.7. The experiment in a line: Immunostimulatory activity in mouse RAW264.7 cells assessed as increase in TNF-alpha production level at 1 uM incubated for 24 hrs by ELISA. The series is classed as functional, cell-based. For orientation: In an ELISA, binding on a coated surface is turned into a signal by an enzyme label.
For another series, the system named is Enterococcus faecalis. The experiment in a line: Antibacterial activity against vancomycin-resistant Enterococcus faecalis clinical isolate assessed as bacterial growth inhibition by CLSI protocol based broth microdilution method. The series is classed as functional.
Series [4] concerns RAW264.7. The series can be described thus: Immunostimulatory activity in mouse RAW264.7 cells assessed as increase in IL-6 production level at 1 uM incubated for 24 hrs by ELISA. The series is classed as functional, cell-based.
The test system of another series is Pseudomonas aeruginosa. The series can be described thus: Antibacterial activity against Pseudomonas aeruginosa PA01 assessed as bacterial growth inhibition at 20 uM by CLSI protocol based broth microdilution method. The series is classed as functional. The note with it: read-out: GI.
The subject of series [5] is Escherichia coli. The experiment in a line: Antibacterial activity against Escherichia coli OP50 assessed as bacterial growth inhibition at 20 uM by CLSI protocol based broth microdilution method. The series is classed as functional. Conditions: read-out: GI.
In series [6] the test system is RAW264.7. The experiment in a line: Immunostimulatory activity in mouse RAW264.7 cells assessed as increase in cell viability at 0.078 to 10 uM incubated for 48 hrs by CCK-8 assay. The series is classed as functional, cell-based. The note with it: dose 0.078-10 µM.
Series [7] has as its system RAW264.7. The series can be described thus: Immunostimulatory activity in mouse RAW264.7 cells assessed as increase in ROS production by measuring fluorescence intensity at 1 uM incubated for 24 hrs by DCFH-DA staining based fluorescence microplate reader assay. The series is classed as functional, cell-based.
For series [8], the system named is RAW264.7. The experiment in a line: Immunostimulatory activity in mouse RAW264.7 cells assessed as increase in NO production at 1 uM incubated for 24 hrs by Griess method. The series is classed as functional, cell-based.
Series [9] has as its system Escherichia coli. The experiment in a line: Antibacterial activity against enteropathogenic Escherichia coli […] assessed as bacterial growth inhibition at 20 uM by CLSI protocol based broth microdilution method. The series is classed as functional. The note with it: read-out: GI.

The structures appear in SMILES notation. In brackets after ≈: the same amount, converted by molar mass. Activity calls are given as the source filed them. No cut-off for these calls is given here.

Usually MIC stands for the lowest concentration found to suppress growth. Take `C=C[C@]1(C)C[C@@H](OC(=O)CO)[C@@]2(C)C3=CC(=O)C[C@@]3(CC[C@H]2C)[C@@H](C)[C@@H]1O`: the outcome in the series on RAW264.7 [1] was inactive. Moreover, the minimal inhibitory concentration (MIC) in the series with Staphylococcus aureus is more than 20 µM; with Enterococcus faecalis it was 5 µM (≈ 1.88 µg/mL). In addition, the Activity entry in the series on RAW264.7 [2] is “Non-Toxic”. In the series with RAW264.7 [3], the outcome was Active.

As for `C=C[C@]1(C)C[C@@H](O)[C@@]2(C)C3=CC(=O)C[C@@]3(CC[C@H]2C)[C@@H](C)[C@@H]1O`, the outcome with RAW264.7 [4] and with RAW264.7 [3] was Active. For the same compound, the result with RAW264.7 [1] was inactive. Besides, the MIC in the series with Staphylococcus aureus and in the series with Enterococcus faecalis was more than 20 µM in each case. Also, the Activity entry in the series on RAW264.7 [2] is given as “Non-Toxic”.

As to `C=C[C@]1(C)C[C@@H](O)[C@@]2(C)C3[C@H](O)CC[C@@]3(CC[C@H]2C)[C@@H](C)C1` (stereo partly drawn), the outcome with RAW264.7 [1] was inactive. Further, the MIC with Staphylococcus aureus came out at 12.5 µM (≈ 3.83 µg/mL); in the series on Enterococcus faecalis, 20 µM (≈ 6.13 µg/mL). For the same compound, the Activity entry in the series on RAW264.7 [2] is reported as “Non-Toxic”.

In the case of `C=C[C@]1(C)C[C@@H](OC(C)=O)[C@@]2(C)C3C(=O)CC[C@@]3(CC[C@H]2C)[C@@H](C)[C@@H]1O` (stereo partly drawn), the inhibition of growth at 20 µM in the series on Pseudomonas aeruginosa was found to be 51%; in the series with Escherichia coli [5], 61%. The Activity in the series with RAW264.7 [1] was 60%; in the series on RAW264.7 [6] it was “Dose-Dependent Effect”; in the series with RAW264.7 [2], “Non-Toxic”. Further, the MIC in the series with Staphylococcus aureus was found to be 0.39 µM (≈ 0.141 µg/mL); with Enterococcus faecalis it was 2.5 µM (≈ 0.906 µg/mL). Further, the result with RAW264.7 [7] was Active.

As to `C=C[C@]1(C)C[C@@H](O)[C@@]2(C)C3CCC[C@@]3(CC[C@H]2C)[C@@H](C)C1` (stereo partly drawn), the outcome with RAW264.7 [1] was inactive. Also, the MIC was determined as 12.5 µM (≈ 3.63 µg/mL) in the series with Staphylococcus aureus and 20 µM (≈ 5.81 µg/mL) in the series with Enterococcus faecalis. Moreover, the Activity entry with RAW264.7 [2] is reported as “Non-Toxic”. Further, the result in the series on RAW264.7 [3] was Active.

Regarding `C=C[C@]1(C)C[C@@H](OC(C)=O)[C@@]2(C)C3[C@H](O)CC[C@@]3(CC[C@H]2C)[C@@H](C)[C@@H]1O` (stereo partly drawn), the results for the inhibition of growth at 20 µM with Pseudomonas aeruginosa and in the series on Escherichia coli [5] were 18% and 20%, respectively. Besides, the result in the series with RAW264.7 [1] was inactive. Besides, the values for the MIC with Staphylococcus aureus and in the series on Enterococcus faecalis were 6.25 µM (≈ 2.28 µg/mL) and 0.625 µM (≈ 0.228 µg/mL), respectively. Moreover, the Activity entry in the series on RAW264.7 [2] is given as “Non-Toxic”. Further, the result with RAW264.7 [3] was Active.

As to `C=C[C@]1(C)C[C@@H](OC(=O)CO[C@H]2O[C@H](CO)[C@@H](O)[C@H](O)[C@H]2O)[C@@]2(C)C3C(=O)CCC3(CC[C@H]2C)[C@@H](C)[C@@H]1O` (single isomer, unassigned), the outcome in the series with RAW264.7 [1] was inactive. The inhibition of growth at 20 µM in the series on Escherichia coli [5] was found to be 21%. For the same compound, the MIC with Staphylococcus aureus and in the series on Enterococcus faecalis was more than 20 µM each time. Further, the outcome in the series on RAW264.7 [8] and in the series with RAW264.7 [3] was Active. The Activity result in the series with RAW264.7 [2] is listed as “Non-Toxic”.

Consider `C=C[C@@]1(C)C[C@H](C)[C@]23CC[C@@H](O)C2[C@@](C)([C@H](C)CC3)[C@H](OC(C)=O)C1` (stereo partly drawn), for which, in the series on RAW264.7 [1], the result was inactive. Moreover, the figures for the MIC in the series on Staphylococcus aureus and with Enterococcus faecalis were more than 20 µM and 2.5 µM (≈ 0.871 µg/mL), respectively. Besides, the Activity entry in the series with RAW264.7 [2] is given as “Non-Toxic”. In the series on RAW264.7 [3], the outcome was Active.

Regarding `CC(=O)OC[C@@H](O)[C@]1(C)C[C@@H](OC(=O)CO)[C@@]2(C)C3C(=O)CC[C@@]3(CC[C@H]2C)[C@@H](C)[C@@H]1O` (stereo partly drawn), the result with RAW264.7 [4] and in the series on RAW264.7 [3] was Active. The result in the series with RAW264.7 [1] was inactive. Besides, the inhibition of growth at 20 µM with Escherichia coli [5] was found to be 21%. Moreover, the minimal inhibitory concentration (MIC) with Staphylococcus aureus and in the series with Enterococcus faecalis was more than 20 µM throughout. In the series with RAW264.7 [2], the Activity entry is recorded as “Non-Toxic”.

In the case of `C=C[C@]1(C)C[C@@H](OC(=O)CO)[C@@]2(C)C3C(=O)CC[C@@]3(CC[C@H]2C)[C@@H](C)[C@@H]1O` (stereo partly drawn), the values for the inhibition of growth at 20 µM with Pseudomonas aeruginosa and in the series on Escherichia coli [5] were 40% and 71%, respectively. In addition, the Activity in the series with RAW264.7 [1] was 60%; in the series on RAW264.7 [6] it was “Dose-Dependent Effect”; with RAW264.7 [2] it was “Non-Toxic”. Further, the results for the MIC with Staphylococcus aureus and in the series with Enterococcus faecalis were 0.09 µM (≈ 0.0341 µg/mL) and 0.31 µM (≈ 0.117 µg/mL), respectively.

For `C=C[C@]1(C)C[C@@H](OC(C)=O)[C@@]2(C)C3=CC(=O)C[C@@]3([C@H](O)C[C@H]2C)[C@@H](C)[C@@H]1O`, the outcome with RAW264.7 [4] and in the series on RAW264.7 [3] was Active. Besides, the result in the series with RAW264.7 [1] was inactive. Moreover, the MIC in the series with Staphylococcus aureus was more than 20 µM; with Enterococcus faecalis, 5 µM (≈ 1.88 µg/mL). Besides, the Activity entry in the series with RAW264.7 [2] is recorded as “Non-Toxic”.

Turning to `C=C[C@]1(C)C[C@@H](O)[C@@]2(C)C3[C@H](O)CC[C@@]3(CC[C@H]2C)[C@@H](C)[C@@H]1O` (stereo partly drawn), in the series on RAW264.7 [1], the outcome was inactive. The MIC with Staphylococcus aureus was determined as 12.5 µM (≈ 4.03 µg/mL); in the series on Enterococcus faecalis, 20 µM (≈ 6.45 µg/mL). For the same compound, the Activity entry in the series with RAW264.7 [2] is “Non-Toxic”.

As to `C=C[C@]1(C)C[C@@H](O)[C@@]2(C)C3C(=O)CC[C@@]3(CC[C@H]2C)[C@@H](C)[C@@H]1O` (stereo partly drawn), in the series on RAW264.7 [1], the result was inactive. The minimal inhibitory concentration (MIC) in the series with Staphylococcus aureus is 6.25 µM (≈ 2 µg/mL); with Enterococcus faecalis, 5 µM (≈ 1.6 µg/mL). In addition, the Activity result in the series with RAW264.7 [2] was “Non-Toxic”. The outcome in the series with RAW264.7 [7] was Active.

As for `C=C[C@@]1(C)C[C@H](C)[C@]23CCC(=O)C2[C@@](C)([C@H](C)CC3)[C@H](OC(C)=O)C1` (stereo partly drawn), in the series with RAW264.7 [1], the result was inactive. The MIC in the series with Staphylococcus aureus turned out to be 12.5 µM (≈ 4.33 µg/mL); in the series on Enterococcus faecalis, 1.25 µM (≈ 0.433 µg/mL). Moreover, in the series with RAW264.7 [2], the Activity entry is on record as “Non-Toxic”.

Regarding `C[C@@H]1CC[C@@]23CCC(=O)C2[C@]1(C)[C@H](OC(=O)CO)C[C@@]1(C)[C@H](O)CO[C@H]1[C@@H]3C` (stereo partly drawn), the result in the series with RAW264.7 [1] was inactive. For the same compound, the inhibition of growth at 20 µM in the series with Escherichia coli [5] was 34%. The MIC with Staphylococcus aureus was more than 20 µM; with Enterococcus faecalis, 20 µM (≈ 7.89 µg/mL). The result in the series on RAW264.7 [8] and in the series with RAW264.7 [3] was Active. Besides, the Activity entry with RAW264.7 [2] is given as “Non-Toxic”.

For `C[C@@H]1CC[C@@]23CCC(=O)C2[C@]1(C)[C@H](OC(=O)CO)C[C@@](C)([C@H](O)CO)[C@@H](O)[C@@H]3C` (stereo partly drawn), the result in the series on RAW264.7 [1] was inactive. In addition, in the series on Escherichia coli [5], the inhibition of growth at 20 µM came to 50%. Further, the MIC was more than 20 µM in the series on Staphylococcus aureus and 20 µM (≈ 8.25 µg/mL) in the series with Enterococcus faecalis. Further, the outcome with RAW264.7 [8] and in the series with RAW264.7 [3] was Active. For the same compound, the Activity entry in the series with RAW264.7 [2] is recorded as “Non-Toxic”.

On to `C=C[C@]1(C)C[C@@H](OC(=O)CO)[C@@]2(C)C3C(=O)[C@H](O)CC3(CC[C@H]2C)[C@@H](C)[C@@H]1O` (single isomer, unassigned), for which the outcome in the series on RAW264.7 [4], in the series with RAW264.7 [8] and with RAW264.7 [3] was Active. In addition, in the series with RAW264.7 [1], the outcome was inactive. Further, the figures for the inhibition of growth at 20 µM in the series with Escherichia coli [5] and in the series with Escherichia coli [9] were 70% and 52%, respectively. For the same compound, the MIC with Staphylococcus aureus was determined as 3.12 µM (≈ 1.23 µg/mL); in the series on Enterococcus faecalis, 1.25 µM (≈ 0.493 µg/mL). The Activity result in the series on RAW264.7 [2] is “Non-Toxic”.
